Assay results from BindingDB's records for doi:10.7270/Q23N21VG (Nmmlsc, 2009).

target: T1, GTPase KRas [1-37] (Homo sapiens, UniProt G3V5T7); assay: activated mutant Ras nucleotide binding blockade – biochemical, additional analogs, multiplex flow cytometry, Ki, SAR follow-up (AID 2043)
T1 construct: 1-37
T1 sequence (G3V5T7 whole entry): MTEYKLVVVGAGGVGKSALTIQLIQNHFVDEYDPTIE

SMILES	EC50
O=C1N=c2c(F)cccc2=C1c1[nH]c2ccccc2c1NO [7-fluoro-3-[3-(hydroxyamino)-1H-indol-2-yl]-2-indolone]	> 30 µM
O=C1N=c2ccccc2=C1c1[nH]c2ccccc2c1NO [3-[3-(hydroxyamino)-1H-indol-2-yl]-2-indolone]	> 30 µM
O=C1Nc2c(F)cccc2C1=C1Nc2ccccc2C1=O	> 30 µM
O=C1N=c2ccc(Br)cc2=C1c1[nH]c2ccccc2c1NO [5-bromanyl-3-[3-(oxidanylamino)-1H-indol-2-yl]indol-2-one]	> 30 µM
O=C1Nc2ccccc2/C1=C1/Nc2ccccc2C1=O [2-[(3Z)-2-oxo-2,3-dihydro-1H-indol-3-ylidene]-2,3-dihydro-1H-indol-3-one]	> 30 µM
O=C1Nc2c(Br)cccc2C1=C1Nc2ccccc2C1=O	> 30 µM
O=C1Nc2c(Cl)cccc2C1=C1Nc2ccccc2C1=O	> 30 µM
O=C1NC(=S)N/C1=C1\C(=O)Nc2ccccc21 [(3Z)-3-(5-oxo-2-sulfanylideneimidazolidin-4-ylidene)-1H-indol-2-one]	> 30 µM
O=C1N=c2c(Br)cccc2=C1c1[nH]c2ccccc2c1NO [7-bromanyl-3-[3-(oxidanylamino)-1H-indol-2-yl]indol-2-one]	> 30 µM
O=C1N=c2c(Cl)cccc2=C1c1[nH]c2ccccc2c1NO [7-chloro-3-[3-(hydroxyamino)-1H-indol-2-yl]-2-indolone]	> 30 µM
O=C1Nc2ccc(Br)cc2C1=C1Nc2ccccc2C1=O	> 30 µM
O=C1NC(=O)/C(=C2/C(=O)Nc3ccccc32)N1	> 30 µM
